In patent US20230265151A1, “GIP/GLP1 CO-AGONIST COMPOUNDS” (priority 2020, published 2023):
Like-named read-outs stand apart in the source and are kept apart here.

How the values were obtained:
hGLP-1R = hGLP-1R (Homo sapiens, UniProt P43220); assay: Functional cAMP formation (HTRF) in HEK-293 clonal cells expressing hGLP-1R, 0.1% bovine casein, without or with 1.0% human serum albumin; type: cell-based; design: expressed in transfected cells; settings: for EC50: geometric mean, read-out: hGLP-1R EC50, nM (SEM, n); for Emax: read-out: hGLP-1R Emax, % ± SEM
Outline: (§1)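 Cells were stimulated with peptide for 30 min at 37° C, then lysed in buffer carrying cAMP-d2 and anti-cAMP Eu3+-cryptate for a competitive HTRF read after at least 60 min at room temperature. The 665/620 nm ratio was converted to nM cAMP against a standard curve.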

hGIPR = target: T1, hGIPR (Homo sapiens, UniProt P48546); assay: Functional cAMP formation (HTRF) in HEK-293 clonal cells expressing hGIPR, 0.1% bovine casein, without or with 1.0% human serum albumin; type: cell-based; settings: for EC50: geometric mean, read-out: hGIPR EC50, nM (SEM, n); for Emax: read-out: hGIPR Emax, % ± SEM
T1 construct: expressed in transfected cells
T1 sequence (P48546 22-466): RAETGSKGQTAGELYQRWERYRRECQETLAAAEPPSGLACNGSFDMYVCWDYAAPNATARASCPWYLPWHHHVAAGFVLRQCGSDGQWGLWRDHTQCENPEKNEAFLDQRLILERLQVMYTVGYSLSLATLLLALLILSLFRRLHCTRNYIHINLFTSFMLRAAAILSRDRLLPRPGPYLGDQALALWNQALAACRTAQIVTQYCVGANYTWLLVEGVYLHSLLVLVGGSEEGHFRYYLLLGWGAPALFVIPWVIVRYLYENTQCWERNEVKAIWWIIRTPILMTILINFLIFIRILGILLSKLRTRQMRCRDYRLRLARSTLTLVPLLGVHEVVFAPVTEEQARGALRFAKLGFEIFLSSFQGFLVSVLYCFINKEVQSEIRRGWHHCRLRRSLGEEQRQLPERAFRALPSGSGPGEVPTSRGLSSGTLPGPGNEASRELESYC
Outline: as §1

hGCGR = target: T2, hGCGR (Homo sapiens, UniProt P47871); assay: Functional cAMP formation (HTRF) in HEK-293 clonal cells expressing hGCGR, 0.1% bovine casein, without or with 1.0% human serum albumin; type: cell-based; settings: geometric mean, read-out: hGCGR EC50, nM (SEM, n)
T2 construct: expressed in transfected cells
Outline: as §1

[1] = target: T3, human Gcg receptor (hGcgR) (Homo sapiens, UniProt P47871); assay: [125I]-Glucagon binding, SPA with membranes of HEK293 cells expressing hGcgR; settings: human GcgR; geometric mean (SEM, n); read-out: Binding Affinity Ki, nM (SEM, n) hGCGR
T3 construct: expressed in transfected cells; crude membranes
Experimental: Two methods are used for the preparation of crude cell membranes.
Method 1: Frozen cell pellets are lysed on ice in hypotonic buffer containing 50 mM Tris HCl, pH 7.5, and Roche Complete™ Protease Inhibitors with EDTA. […] The homogenate is centrifuged at 4° C. at 1100 × g for 10 minutes. The supernatant is collected and stored on ice while the pellets are resuspended in homogenization buffer and rehomogenized as described above. The homogenate is centrifuged at 1100 × g for 10 minutes. The second supernatant is combined with the first supernatant and centrifuged at 35000 × g for 1 hour at 4° C. The resulting membrane pellet is resuspended in homogenization buffer containing protease inhibitors at approximately 1 to 3 mg/mL, quick frozen in liquid nitrogen and stored as aliquots in a -80° C. freezer until use.
The homogenate is centrifuged at 4° C. at 1800 × g for 15 minutes. The supernatant is collected and stored on ice while the pellets are resuspended in homogenization buffer (without DNAse I) and rehomogenized as described above. The homogenate is centrifuged at 1800 × g for 15 minutes. The second supernatant is combined with the first supernatant and centrifuged an additional time at 1800 × g for 15 minutes. The overall supernatant is then centrifuged at 25000 × g for 30 minutes at 4° C. The resulting membrane pellet is resuspended in homogenization buffer (without DNAse I) containing protease inhibitors at approximately 1 to 3 mg/mL and stored as aliquots in a -80° C. freezer until use.
The human Gcg receptor binding assays are performed using a Scintillation Proximity Assay (SPA) format with wheat germ agglutinin (WGA) beads (Perkin Elmer). The binding buffer contains 25 mM 4-(2-hydroxyethyl)-1-piperazineethanesulfonic acid (HEPES), pH 7.4, 2.5 mM CaCl2, 1 mM MgCh, 0.1% (w/v) bacitracin (Research Products), 0.003% (w/v) Polyoxyethylenesorbitan monolaurate (TWEEN®-20), and Roche Complete™ Protease Inhibitors without EDTA. […] Next, 5 µL serially diluted compound or DMSO is transferred into Corning® 3632 clear bottom assay plates containing 45 µL assay binding buffer or unlabeled Gcg control (non-specific binding or NSB, at 1 µM final). […] Plates are sealed and mixed on a plate shaker (setting 6) for 1 minute and read with a PerkinElmer Trilux MicroBeta® scintillation counter after 12 hours of incubation/settling time at room temperature.
Raw CPM data for concentration curves of peptides, Gcg, GLP-1, or GIP are converted to percent inhibition by subtracting nonspecific binding (binding in the presence of excess unlabeled Gcg, GLP-1, or GIP, respectively) from the individual CPM values and dividing by the total binding signal, also corrected by subtracting nonspecific binding. Data are analyzed using four-parameter (curve maximum, curve minimum, IC50, Hill slope) nonlinear regression routines (Genedata Screener, version 12.0.4, Genedata AG, Basal, Switzerland). […] Values for Ki are reported as the geometric mean, with error expressed as the standard error of the mean (SEM) and n is equal to the number of independent replicates (determined in assays performed on different days). Geometric Means are calculated as follows: […]
The Ki Ratio (Ki for native control peptide/Ki for test compound) at each receptor and each species is calculated. The Ki Ratio is a rapid indication of the apparent affinity of a peptide compared to the native control peptide.
n=⅟x means that only one value out of the total number of replicates (x) is used to express the mean. SEM is only calculated when n=2 or greater non-qualified results exist. Means are expressed as GeoMetric means with the standard error of the mean (SEM) and the number of replicates (n) indicated in parenthesis.

[2] = 0.1% bovine casein and 1.0% human serum albumin, 37° C.
[3] = cAMP, incubated at 37° C., 0.1% bovine casein (no human serum albumin)
[4] = HEK293, 0.1% bovine casein and 1.0% human serum albumin, 37° C., percent of maximal response to GIP(1-42)NH2
[5] = HEK293, percent of maximal response to GIP(1-42)NH2, 37° C., 0.1% bovine casein, arithmetic mean

T2 sequence (P47871 26-477): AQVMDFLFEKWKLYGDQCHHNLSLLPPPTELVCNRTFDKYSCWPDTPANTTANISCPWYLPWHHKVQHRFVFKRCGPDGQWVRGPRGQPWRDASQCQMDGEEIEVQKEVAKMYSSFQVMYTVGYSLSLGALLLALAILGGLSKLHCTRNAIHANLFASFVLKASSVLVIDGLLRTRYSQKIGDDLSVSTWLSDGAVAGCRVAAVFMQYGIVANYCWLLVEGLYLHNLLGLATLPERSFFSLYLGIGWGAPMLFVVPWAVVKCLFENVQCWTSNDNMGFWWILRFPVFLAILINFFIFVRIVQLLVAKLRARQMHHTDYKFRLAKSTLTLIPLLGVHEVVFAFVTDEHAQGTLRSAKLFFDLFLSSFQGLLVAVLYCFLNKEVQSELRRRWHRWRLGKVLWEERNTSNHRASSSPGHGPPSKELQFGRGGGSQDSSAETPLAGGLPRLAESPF
T3 sequence (P47871 26-477): as above
Chain of hGLP-1R (P43220 24-463): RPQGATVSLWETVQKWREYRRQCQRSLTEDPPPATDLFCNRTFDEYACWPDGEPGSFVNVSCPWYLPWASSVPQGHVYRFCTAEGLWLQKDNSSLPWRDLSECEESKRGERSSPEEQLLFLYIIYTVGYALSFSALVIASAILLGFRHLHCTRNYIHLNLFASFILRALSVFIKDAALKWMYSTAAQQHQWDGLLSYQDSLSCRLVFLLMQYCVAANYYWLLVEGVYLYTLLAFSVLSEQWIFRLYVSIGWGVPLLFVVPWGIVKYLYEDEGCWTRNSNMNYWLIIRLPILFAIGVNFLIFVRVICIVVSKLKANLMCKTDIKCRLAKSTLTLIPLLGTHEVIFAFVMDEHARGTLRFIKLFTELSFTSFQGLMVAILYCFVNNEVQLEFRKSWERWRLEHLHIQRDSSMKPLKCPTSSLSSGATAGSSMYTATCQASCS

Structure (SMILES) | EC50 (hGLP-1R; [2]) | EC50 (hGLP-1R; [3]) | EC50 (hGIPR; [2]) | Emax (hGIPR; [4]) | Emax (hGIPR; [5]) | EC50 (hGIPR; [3]) | EC50 (hGCGR; [2]) | EC50 (hGCGR; [3]) | Ki [1] | Emax (hGLP-1R; HEK293, 0.1% bovine casein and 1.0% human serum albumin, 37° C., percent of maximal response to GLP-1(7-36)NH2) | Emax (hGLP-1R; HEK293, percent of maximal response to GLP-1(7-36)NH2, 37° C., 0.1% bovine casein, arithmetic mean)
CC[C@H](C)[C@H](NC(=O)[C@H](CC(C)C)NC(=O)[C@](C)(Cc1ccc(O)cc1)NC(=O)[C@@H](CCC(=O)O)NC(=O)[C@@H](NC(=O)[C@H](Cc1ccccc1)NC(=O)[C@H](CCC(=O)O)NC(=O)C(C)(C)NC(=O)[C@H](CCC(N)=O)NC(=O)[C@H](C)NC(=O)[C@H](CCCCNC(=O)COCCOCCNC(=O)COCCOCCNC(=O)CC[C@H](NC(=O)CCCCCCCCCCCCC(=O)O)C(=O)O)NC(=O)[C@H](CCCN)NC(=O)[C@H](CC(=O)O)NC(=O)[C@H](CC(C)C)NC(=O)[C@](C)(CC(C)C)NC(=O)[C@@H](NC(=O)[C@H](CO)NC(=O)[C@H](Cc1ccncc1)NC(=O)[C@H](CC(=O)O)NC(=O)[C@H](CO)NC(=O)[C@@H](NC(=O)[C@](C)(Cc1ccccc1F)NC(=O)[C@@H](NC(=O)CNC(=O)[C@H](CCC(=O)O)NC(=O)C(C)(C)NC(=O)[C@@H](N)Cc1ccc(O)cc1)[C@@H](C)O)[C@@H](C)O)[C@@H](C)CC)[C@@H](C)CC)C(=O)N[C@@H](CCC(=O)O)C(=O)NCC(=O)NCC(=O)N1CCC[C@H]1C(=O)N[C@@H](CO)C(=O)N[C@@H](CO)C(=O)NCC(=O)N[C@@H](C)C(=O)N1CCC[C@H]1C(=O)N1CCC[C@H]1C(=O)N1CCC[C@H]1C(=O)N[C@@H](CO)C(=O)N[C@@H](CCCCNC(=O)COCCOCCNC(=O)COCCOCCNC(=O)CC[C@H](NC(=O)CCCCCCCCCCCCC(=O)O)C(=O)O)C(N)=O [Example 19] | 24.4 nM | 1.34 nM | 0.438 nM | 89.7 ± 2.13% | 96.6 ± 2.7% | 0.0158 nM | > 9950 nM | > 9950 nM | > 966 nM | – | –
CC[C@H](C)[C@H](NC(=O)[C@H](CC(C)C)NC(=O)[C@](C)(Cc1ccc(O)cc1)NC(=O)[C@@H](CCC(=O)O)NC(=O)[C@@H](NC(=O)[C@H](Cc1ccccc1)NC(=O)[C@H](CCC(=O)O)NC(=O)C(C)(C)NC(=O)[C@H](CCC(N)=O)NC(=O)[C@H](C)NC(=O)[C@H](CCCCNC(=O)COCCOCCNC(=O)COCCOCCNC(=O)CC[C@H](NC(=O)CCCCCCCCCCCCC(=O)O)C(=O)O)NC(=O)[C@H](CCCN)NC(=O)[C@H](CC(=O)O)NC(=O)[C@H](CC(C)C)NC(=O)[C@](C)(Cc1ccccc1)NC(=O)[C@@H](NC(=O)[C@H](CO)NC(=O)[C@H](Cc1ccncc1)NC(=O)[C@H](CC(=O)O)NC(=O)[C@H](CO)NC(=O)[C@@H](NC(=O)[C@](C)(Cc1ccccc1)NC(=O)[C@@H](NC(=O)CNC(=O)[C@H](CCC(=O)O)NC(=O)C(C)(C)NC(=O)[C@@H](N)Cc1ccc(O)cc1)[C@@H](C)O)[C@@H](C)O)[C@@H](C)CC)[C@@H](C)CC)C(=O)N[C@@H](CCC(=O)O)C(=O)NCC(=O)NCC(=O)N[C@@H](CCCCNC(=O)COCCOCCNC(=O)COCCOCCNC(=O)CC[C@H](NC(=O)CCCCCCCCCCCCC(=O)O)C(=O)O)C(=O)N[C@@H](CO)C(=O)N[C@@H](CO)C(=O)NCC(=O)N[C@@H](C)C(=O)N1CCC[C@H]1C(=O)N1CCC[C@H]1C(=O)N1CCC[C@H]1C(=O)N[C@@H](CO)C(N)=O [Example 46] | – | – | – | 73.3% | 89.5 ± 2.64% | – | > 9950 nM | > 9950 nM | > 966 nM | 117% | 79.2 ± 1.23%
CC[C@H](C)[C@H](NC(=O)[C@H](CC(C)C)NC(=O)[C@](C)(Cc1ccc(O)cc1)NC(=O)[C@@H](CCC(=O)O)NC(=O)[C@@H](NC(=O)[C@H](Cc1ccccc1)NC(=O)[C@H](CCC(=O)O)NC(=O)C(C)(C)NC(=O)[C@H](CCC(N)=O)NC(=O)[C@H](C)NC(=O)[C@H](CCCCNC(=O)CC[C@H](NC(=O)COCCOCCNC(=O)COCCOCCNC(=O)CCCCCCCCCCCCC(=O)O)C(=O)O)NC(=O)[C@H](CCCN)NC(=O)[C@H](CC(=O)O)NC(=O)[C@H](CC(C)C)NC(=O)[C@](C)(CC(C)C)NC(=O)[C@@H](NC(=O)[C@H](CO)NC(=O)[C@H](Cc1ccncc1)NC(=O)[C@H](CC(=O)O)NC(=O)[C@H](CO)NC(=O)[C@@H](NC(=O)[C@](C)(Cc1ccccc1F)NC(=O)[C@@H](NC(=O)CNC(=O)[C@H](CCC(=O)O)NC(=O)C(C)(C)NC(=O)[C@@H](N)Cc1ccc(O)cc1)[C@@H](C)O)[C@@H](C)O)[C@@H](C)CC)[C@@H](C)CC)C(=O)N[C@@H](CCC(=O)O)C(=O)NCC(=O)NCC(=O)N[C@@H](CCCCNC(=O)CC[C@H](NC(=O)COCCOCCNC(=O)COCCOCCNC(=O)CCCCCCCCCCCCC(=O)O)C(=O)O)C(=O)N[C@@H](CO)C(=O)N[C@@H](CO)C(=O)NCC(=O)N[C@@H](C)C(=O)N1CCC[C@H]1C(=O)N1CCC[C@H]1C(=O)N1CCC[C@H]1C(=O)N[C@@H](CO)C(N)=O [Example 41] | 27.2 nM | 0.691 nM | 0.405 nM | 88.5 ± 0.638% | – | 0.0108 nM | > 9950 nM | > 9950 nM | > 957 nM | – | –
